Test system: neonatal rat ventricular myocytes
Test: Cardiomyocyte hypertrophy (a-actinin staining, cell surface area) in cultured neonatal rat cardiomyocytes
Type: cell-based
Parameters: dose or concentration left out as unconfirmed
Details: cells treated with the control siRNA; AdCnA infection or phenylephrine
Description: Cardiomyocyte cultures and siRNA transfection. Neonatal rat ventricular myocytes were obtained as described previously in detail^6. Neonatal ventricular rat myocytes were obtained by enzymatic dissociation of 1-2 day old rat neonatal ventricles. Ventricles were stored in HEPES buffered DMEM (pH. 7.4) prior to multiple rounds of enzymatic digestion in DMEM nutrient mixture F-12 Ham base (Sigma) supplemented with 0.7 mg/ml collagenase type 2 (Invitrogen) and 1 mg/ml […] (Sigma). Cells were collected by centrifugation at 61×g for 10 min., resuspended in neonatal calf serum (Invitrogen) and stored in an incubator at 37° C. All cell suspensions were pooled, centrifuged at 61×g for 10 min. and resuspended in DMEM (Invitrogen) supplemented with 10% horse serum (Invitrogen) and 5% fetal calf serum (Invitrogen). […]
Immunocytochemistry and confocal microscopy. […] Cells were washed 3 times with PBS for 5 minutes, mounted with coverslips in 0.1 M Tris-HCl (pH 9.5)-glycerol (3:7) including 50 mg/ml n-propylgallate as anti-fading reagent, and analyzed by confocal microscopy using a Zeiss LSM 510 META instrument. […] Cell surface areas were determined using SPOT-imaging software (Diagnostic Instruments) on 80-100 GFP-positive cardiomyocytes in 10 to 20 fields in three independent experiments. […]

Structure (SMILES): CNC[C@H](O)c1cccc(O)c1 [PE, phenylephrine]
- hypertrophy response: robust hypertrophy response

Reference: patent US8367342B2, “Cardiac hypertrophy” (Lead Pharma Drug Development IP B.V., priority 2006, dated 2013)
